Here are results for one compound from patent publication US20230390275A1, “APPLICATION OF ESTER GROUP-[…] PR[…] AND METABOLITE THEREOF IN PREPARATION OF DRUG FOR TREATING HEART FAILURE” (CHANGCHUN GENESCIENCE PHARMACEUTICAL CO., LTD., priority 2020, published 2023).

SMILES strings stand for the structures.

Type in all cases: in vivo, Sprague Dawley rats
Assay [1] relates to heart failure rats. As to the kind of experiment: Body weight and organ weight index (heart weight index, brain/heart weight ratio) in myocardial infarction heart failure rats. On the set-up: Brain weight/heart weight: unit not given here. The note with it: 3 mpk p.o. qd for 4 weeks; endpoint; Mean ± SEM, N = 7. Here is the method: • 1. Vehicle (0.5% CMC Na): formulation: 5 g of CMC Na was weighed out, and the volume was made up to 1000 mL with ddwater; the vehicle was obtained by stirring with a stirrer until the CMC Na was dissolved. • 2. EG017: formulation: a proper amount of the sample was weighed out, and a formula amount of the 0.5% CMC Na was added to prepare 1 mg/kg, 3 mg/kg and 10 mg/kg compound; the formulations were obtained by stirring with a stirrer until the sample was dissolved. Administration regimen: one week after animal modeling, sham/myocardial infarction rats were grouped and administered orally once daily for 28 consecutive days in a volume of 10 mL/kg. […]
One week after the modeling of animals, the isoflurane was used for anesthetizing the rats, the Vevo small animal ultrasonic imaging system was used for checking the function of the left ventricle of the model rats, and successful modeling was determined if the LVFE % was reduced by 30%. […]

Assay [2] relates to heart failure rats. As to the kind of experiment: Hemodynamics (heart rate, arterial blood pressure, left ventricular pressure) in myocardial infarction heart failure rats. To be noted: 3 mpk p.o. qd for 4 weeks; one day after last dose; Mean ± SEM, N = 7. On the set-up: Dp/dt max / Dp/dt min: unit not given here. Here is the method: (§1) • 1. Vehicle (0.5% CMC Na): formulation: 5 g of CMC Na was weighed out, and the volume was made up to 1000 mL with ddwater; the vehicle was obtained by stirring with a stirrer until the CMC Na was dissolved. • 2. EG017: formulation: a proper amount of the sample was weighed out, and a formula amount of the 0.5% CMC Na was added to prepare 1 mg/kg, 3 mg/kg and 10 mg/kg compound; the formulations were obtained by stirring with a stirrer until the sample was dissolved. Administration regimen: one week after animal modeling, sham/myocardial infarction rats were grouped and administered orally once daily for 28 consecutive days in a volume of 10 mL/kg.
(§2) After adaptive feeding, on the day of the experiment, the animals were anesthetized by intraperitoneal injection of pentobarbital sodium injection (60 mpk), atropine (0.5 mpk) was injected intraperitoneally to eliminate phlegm, and then the trachea was connected with a breathing machine to assist breathing; the chest was cut open from the place between the third rib and the fourth rib and then expanded with a chest expander; the pericardium was torn open, the left anterior descending coronary artery was ligated with 5-0 silk thread, the ribs and skin were sutured, and then the animals were placed on a heat preservation blanket for recovery after operation. The animals in the Sham group were also subjected to the same operation, except that the ligation with silk thread was not performed. After the operation was finished, all the animals are subjected to intramuscular injection of meloxicam (1 mpk) and gentamicin hydrochloride injection (8 mpk) for analgesia and anti-infection. One day before administration, the rats were subjected to cardiac ultrasonography after anesthesia by isoflurane inhalation (1.5%-5% v/v in oxygen), and the ligation was successful if there was no significant contraction of the anterior wall of the left ventricle, the left ventricular cavity was enlarged, and there was a 30% decrease in left ventricular ejection fraction compared to the normal control group. Successfully modeled rats were selected for subsequent experiments (note: ensure that there were 7 animals in each group after modeling, and 7 animals in the sham group). The rats in each group were subjected to intragastric administration of therapeutic agent once daily for four consecutive weeks. During the experiment, the living state of the animals was observed, and the abnormal conditions were recorded; endpoint index detection and sample collection were performed one day after the last dose.
(§3) One week after the modeling of animals, the isoflurane was used for anesthetizing the rats, the Vevo small animal ultrasonic imaging system was used for checking the function of the left ventricle of the model rats, and successful modeling was determined if the LVFE % was reduced by 30%.
(§4) Except for the Sham group, the animals were divided into 9 groups according to LVEF % and body weight, 7 rats in each group. […]

For assay [3], the system named is heart failure rats. As to the kind of experiment: Echocardiography of left ventricular function in myocardial infarction heart failure rats. To be noted: 3 mpk p.o. qd for 4 weeks; one day after last dose; Mean ± SEM, N = 7. Here is the method: as §1, §2, §3, §4

`C[C@@](COc1ccc(C#N)cc1)(OC(=O)c1cccnc1)C(=O)Nc1ccc(C#N)c(C(F)(F)F)c1` [EG017, (S)-1-((4-cyano-3-(trifluoromethyl)phenyl)amino)-3-(4-cyanophenoxy)-2-methyl-1-oxopropan-2-yl nicotinate]: in assay [1], the Brain weight/heart weight is given as 78.3 ± 4.31 and the Heart weight index was found to be 0.376 ± 0.025 g/100 g body weight. Also, in assay [2], the DBP was determined as 76.1 ± 3.02 mmHg, the Dp/dt max came out at 6630 ± 432, the Dp/dt min is recorded as −6603 ± 707 and the HR is on record as 352 ± 23.3 BPM. Further, in assay [2], the LVSP was 98.5 ± 3.89& mmHg, the MBP amounted to 88.3 ± 3.39 mmHg and the SBP was 98.7 ± 3.62 mmHg. In assay [3], this compound gave a CO of 85.6 ± 9.55 mL/min, an EDV of 477 ± 48.2 µL, an ESV of 238 ± 52.0 µL and an FS of 29.0 ± 3.51 %. For the same compound, in assay [3], the LV mass is 1497 ± 145^ mg, the LVEF worked out at 52.7 ± 5.61 %, the LVPWTd was 2.17 ± 0.17 mm and the LVPWTs is 2.66 ± 0.22 mm. In addition, the SV in assay [3] came to 238 ± 21.1 µL.
